US20210220331A1, “INHIBITORS OF IRES-MEDIATED PROTEIN SYNTHESIS” (The Regents of the University of California, priority 2016, published 2021)
Like-named read-outs stand apart in the source and are kept apart here.

Assays:
[1] = test system: IRES from encephalomyocarditis virus; assay: Dicistronic IRES mRNA reporter assay, ECMV IRES; assay type: cell-based; conditions: LN229 cells
Protocol: (§1) Western blot and quantitative RT-PCR analyses were performed as previously described (19). For Western blotting, cells or tissues were lysed in RIPA (lysis) buffer containing protease inhibitor cocktail and phosSTOP phosphatase inhibitor cocktail (Roche) and extracts resolved by SDSPAGE. Proteins were transferred to PVDF membranes and incubated with the indicated antibodies. For IRES reporter assays, the indicated mRNA reporters were cotransfected into cells with pSVβ-galactosidase to normalize for transfection efficiency as described previously (16). Cells were harvested 18 h following transfection and Renilla, firefly and β-galactosidase activities determined using the Dual-Glo Luciferase and β-galactosidase assay systems (Promega).
(B) Schematic diagrams of the dicistronic constructs used in this study. […] Input and bound fractions were analyzed by immunoblotting using hnRNP A1 antibodies. […] Bound CCND1 or c-MYC RNAs were detected via RT-PCR. […]
Several dicistronic IRES mRNA reporter constructs were utilized, shown in FIG. 1B, in which the indicated IRES sequences were inserted within the intercistronic region. LN229 cells transiently transfected with these constructs were assayed for Renilla and firefly luciferase activities, which are readouts of cap-dependent and IRES-mediated translation initiation, respectively (16).

[2] = test system: LN229, LN18, LN428 and SF763 GBM lines; assay: Cell-cycle phase distribution and Annexin V apoptosis in four GBM lines; assay type: cell-based
Protocol: Results are expressed as relative fold change in firefly (FF) luciferase activity and the mean and +S.D. are shown for three independent experiments. […] Data represent mean±S.D. of three independent experiments. […] Control cell were treated with DMSO vehicle. Data are means±S.D., n=3. […] Percent apoptotic cells as determined via Annexin V staining are also shown below each graph.

[3] = test system: cyclin D1, c-MYC and actin mRNAs; assay: Polysome analysis in LN229 cells; assay type: cell-based
[4] = test system: Delta Max splicing; assay: Max exon 5 alternative splicing analysis (RT-PCR); assay type: cell-based; conditions: U87 cells stably expressing EGFRvIII
Protocol: Max exon 5 alternative splicing analysis was performed as described (22). Alternative splicing was assayed using quantitative RT-PCR using primers designed to constitutive exons flanking alternative exons. Primers were: Max (85F) 5′-[…]-3′; MAX(85R) 5′-[…]-3′. Reverse primers were 32P end-labeled and PCR reactions were amplified for 22 cycles and subsequently resolved by denaturing PAGE and imaged.
(B) Schematic diagrams of the dicistronic constructs used in this study. Constructs used are pRF, pRCD1F, which contains the human cyclin D1 IRES, pRmycF, containing the human c-myc IRES, pRp27F, containing the human p27Kip1 IRES and pRECMVF, containing the IRES from encephalomyocarditis virus. (C) Relative Renilla and firefly luciferase activities obtained from LN229 GBM cells transfected with the indicated constructs in the absence or presence of the inhibitor C11. The mean and +SD are shown for three independent experiments. […] (D) RNA-pull down assays utilizing biotinylated cyclin D1 or c-MYC IRES RNAs. Cytoplasmic extracts of LN229 cells treated with C11 (50 nM) as indicated were incubated with biotinylated cyclin D1 or c-MYC IRES RNAs and precipitated with streptavidin-Sepharose beads. Input and bound fractions were analyzed by immunoblotting using hnRNP A1 antibodies. […] Bound CCND1 or c-MYC RNAs were detected via RT-PCR. […]

[5] = test system: cyclin D1 and c-MYC protein; assay: Western blot of cyclin D1 and c-MYC protein levels in GBM cell lines; assay type: cell-based; conditions: LN229 and SF763 cells, 24 h
Protocol: as §1
(B) Schematic diagrams of the dicistronic constructs used in this study. Constructs used are pRF, pRCD1F, which contains the human cyclin D1 IRES, pRmycF, containing the human c-myc IRES, pRp27F, containing the human p27Kip1 IRES and pRECMVF, containing the IRES from encephalomyocarditis virus. (C) Relative Renilla and firefly luciferase activities obtained from LN229 GBM cells transfected with the indicated constructs in the absence or presence of the inhibitor C11. […] Input and bound fractions were analyzed by immunoblotting using hnRNP A1 antibodies. […] Bound CCND1 or c-MYC RNAs were detected via RT-PCR. […]

[6] = test system: normal mature human neurons; assay: In vitro cytotoxicity in human neurons (trypan blue exclusion); assay type: cell-based; design: dose or concentration left out as unconfirmed
Protocol: Within the series B and C analogs, IRES-J008, with a 4-methoxyphenyl substituent in place of the 2,4-dimethoxybenzyl unit, and to a lesser degree, IRES-J009, with an N1-methyluracil unit in place of the dichloromaleimide unit, inhibited cyclin D1 and c-MYC PP242-induced IRES activity. […] The in vitro cytotoxicities of these three analogs relative to C11 in human neurons were also determined. […] The reduced toxicity of the IRES-J007 versus C11 might possible be due to the lack of the quite reactive dichloromaleimide unit present in C11 which is absent in IRES-J007, or may be due to other factors.

[7] = Pharmacokinetics in mice; assay type: in vivo
Protocol: The pharmacokinetic properties of IRES-J007 in mice were determined. […] IRES-J007 was ˜50% bioavailable following oral delivery with a serum half-life of approximately 30 hours.

[8] = test system: subcutaneous LN229 tumors
Protocol: TUNEL staining of tumor sections was performed using the TACSXL DAB In Situ Apoptosis Detection kit (Trevigen) according to the manufacturer's instructions (19). […] Xenograft Studies-Xenografts of LN229 cells were performed in female C.B.-17-scid (Taconic) mice as previously described (14). Tumors were harvested at autopsy for Western blot analysis. Sections of paraffin-embedded tumors on slides were processed for immunohistochemistry as previously described (14,19). Statistical analysis was done with Student's t test and ANOVA models using Systat 13 (Systat Software, Chicago, Ill.). P values of less the 0.05 were considered significant.
Left panel, apoptotic cells were identified by TUNEL assays of sections prepared from harvested tumors at day 12 following initiation of treatment regimens. Data are expressed as the number of positive apoptotic bodies divided by high power field (hpf; 10-12 hpf/tumor). Values are means+S.D., *, P<0.05.

[9] = test system: c-MYC mRNA; assay: Polysome analysis of xenografted LN229 tumors, c-MYC mRNA
Protocol: (§2) Cells were lysed in buffer containing 100 μg/ml cycloheximide at 4° C. Following removal of mitochondria and nuclei, supernatants were layered onto 15-50% sucrose gradients and centrifuged at 38,000 rpm for 2 h at 4° C. in an SW40 rotor (Beckman Instruments). Gradients were fractionated into 11 1-ml fractions using a density gradient fractionator (Brandel Instruments). The profiles of the gradients were monitored at 260 nm, and RNAs from individual fractions were pooled into a nonribosomal/monosomal pool and a polysomal pool. These RNAs (100 ng) were used in real time quantitative RT-PCR analysis for the indicated transcripts.
(§3) Tumor extracts were subjected to sucrose density gradient centrifugation, fractionated and pooled into nonribosomal, monosomal fraction (N, white bars) and a polysomal fraction (P, black bars). Purified RNAs were used in real-time qRT-PCR analysis to determine the distributions of cyclin D1, c-MYC and actin mRNAs across the gradients. […] Means and +S.D. values are shown for quadruplicate RT-PCR measurements. *, P<0.05.
(§4) Polysomes were separated via sucrose density gradient sedimentation and fractionated into heavy polysomal and nonribosomal/monosomal fractions.

[10] = test system: cyclin D1 mRNA; assay: Polysome analysis of xenografted LN229 tumors, cyclin D1 mRNA
Protocol: as §2, §3, §4

[11] = combination PP242 50 mg/kg/d + IRES-J007 20 mg/kg/d

With `COc1ccc(CN2C(=O)C(Cl)=C(Cl)C2=O)c(OC)c1` [Compound C11, reference compound] the “IRES-mediated initiation from ECMV IRES” value [1] was “did not affect”, the “percentage of cells undergoing apoptosis” value ([2]; combined with PP242, four GBM lines) was “further potentiated the percentage of cells undergoing apoptosis” and the G1 arrest ([2]; cotreatment with PP242, four GBM lines) was “markedly stimulated G1 arrest”. For the same molecule, the “actin mRNA distribution” value ([3]; 50 nM) was “unaffected”, the “polysome distribution of cyclin D1 and c-MYC mRNA” value ([3]; 50 nM) was “significant shift in both cyclin D1 and c-MYC mRNA to monosomal/nonribosomal fractions” and the “cyclin D1 or c-MYC steady-state mRNA levels” value ([3]; total monosomal/nonribosomal plus polysomal mRNA) was “did not appear to alter”. For the same molecule, the “Delta Max splicing” value [4] was “did not alter” and the “cyclin D1 and c-MYC protein levels” value [5] was “markedly reduced”.

With `COc1ccc(CN2C(=O)c3ccccc3C2=O)c(OC)c1` [IRES-J007, 2-((2,4-Dimethoxyphenyl)methyl)isoindoline-1,3-dione] the “cytotoxic effects on normal neurons” value [6] was “no significant cytotoxic effects”, the AUC ([7]; mouse, plasma, 20 mg/kg, PO) was 759 µg·h/mL and the Cmax ([7]; mouse, plasma, 20 mg/kg, PO) was 17.2 µg/mL. For the same molecule, the Tmax ([7]; mouse, plasma, 20 mg/kg, PO) was 7.2 h, the half-life ([7]; mouse, plasma, 20 mg/kg, PO, read-out: Half-life (T1/2 K10) (converted)) was 27.4 h and the AUC ([7]; mouse, plasma, IV) was 1290 µg·h/mL. The Cmax ([7]; mouse, plasma, IV) was 284 µg/mL, the Tmax ([7]; mouse, plasma, IV) was 0.05 h and the clearance ([7]; mouse, plasma, IV) was 152 mL/min/kg. It also gave a half-life ([7]; mouse, plasma, IV, read-out: Half-life (T1/2 b) (converted)) of 13.6 h, a bioavailability ([7]; mouse, plasma, iv, read-out: Relative Bioavailability) of 100% and a bioavailability ([7]; mouse, plasma, po, 20 mg/kg, PO, calculated based on AUC, read-out: Relative Bioavailability) of 40.1%. For the same molecule, the bioavailability ([7]; mouse, plasma, po, 20 mg/kg, oral gavage 20 mg/kg, read-out: bioavailability following oral delivery) was roughly 50%, the half-life ([7]; mouse, serum, oral delivery 20 mg/kg, read-out: serum half-life (converted)) was roughly 30 h and the trough levels ([7]; single 20 mg/kg dose) was “exceeded concentrations expected to block hnRNP A1 IRES activity”. The “overall survival compared to either monotherapy” value [8, 11] was “significantly extended”, the tumor growth delay [8, 11] was 20.5 days and the “inhibition of tumor growth at end of dosing period” value ([8]; combination PP242 50 mg/kg/d + IRES-J007 20 mg/kg/d, ten consecutive days) was 93%. For the same molecule, the “cyclin D1 and c-MYC protein levels in tumors” value ([8]; combination therapy) was “Marked reductions”, the “TUNEL staining of tumor sections (apoptosis)” value ([8]; combination therapy, tumors harvested at day 12) was “significant staining” and the “tumor growth vs double vehicle controls” value ([8]; monotherapy IRES-J007 20 mg/kg/d, ten consecutive days) was “did not differ significantly”. For the same molecule, the “c-MYC mRNA translational efficiency” value ([9]; IRES-J007 monotherapy) was “significant reduction”, the “c-MYC mRNA polysomal” value ([9]; PP242 and IRES-J007 cotherapy) was 3% and the “cyclin D1 mRNA translational efficiency” value ([10]; IRES-J007 monotherapy) was “significant reduction”. For the same molecule, the “CCND1 mRNA polysomal” value ([10]; PP242 and IRES-J007 cotherapy) was 5%.
